According to patent publication US20090298825A1, “Bicycloheteroaryl Compounds as P2x7 Modulators and Uses Thereof” (priority 2006, published 2009):

Biological target: T1, P2X7 receptor (Homo sapiens, UniProt Q99572)
T1 construct: endogenous in cells; host or cells: THP-1 cells differentiated with LPS and IFN-γ
T1 sequence (Q99572 1-595): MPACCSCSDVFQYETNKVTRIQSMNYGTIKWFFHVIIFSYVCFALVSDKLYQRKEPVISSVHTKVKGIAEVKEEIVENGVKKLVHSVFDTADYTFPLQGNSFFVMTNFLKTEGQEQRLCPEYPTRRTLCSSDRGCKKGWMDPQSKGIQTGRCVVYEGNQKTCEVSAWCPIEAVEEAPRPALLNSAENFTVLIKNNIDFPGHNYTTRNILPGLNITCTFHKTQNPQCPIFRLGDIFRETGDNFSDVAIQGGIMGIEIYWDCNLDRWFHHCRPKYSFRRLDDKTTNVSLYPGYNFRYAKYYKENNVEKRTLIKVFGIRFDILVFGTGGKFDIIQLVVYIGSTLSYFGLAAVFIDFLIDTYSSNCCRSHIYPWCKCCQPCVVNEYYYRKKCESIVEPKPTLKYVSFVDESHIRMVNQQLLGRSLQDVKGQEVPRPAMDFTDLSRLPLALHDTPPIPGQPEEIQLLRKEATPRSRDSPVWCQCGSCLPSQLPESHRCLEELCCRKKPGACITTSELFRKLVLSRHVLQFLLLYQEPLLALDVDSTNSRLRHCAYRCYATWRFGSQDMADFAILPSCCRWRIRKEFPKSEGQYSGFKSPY
Test: IL-1β release assay in differentiated THP-1 cells stimulated with BzATP (Example 9)
Type: cell-based
Details: for inhibition at 0.1 µM: 0.1 μM concentration; for inhibition at 0.1 µM / inhibition at 0.3 µM: read-out: IL-1β % Inhib. @ 0.3 or 0.1 μM; for inhibition at 0.3 µM: 0.3 μM concentration; for IC50: four parameter logistic fit, read-out: IL-1β IC50
Experimental: The cells are then pretreated for 30 minutes with the compound of interest at the appropriate concentration in RPMI media containing 100 IU/mL penicillin, 100 ug/mL streptomycin. […] 30 uL of cell supernatant is then collected and IL-1β levels determined via ELISA (R&D systems Cat. # HSLB50) according to manufacturer's recommendations using the Tecan Safire plate reader. Background adjusted IL-1β levels of drug treated and non-treated cells are used to calculate the percent inhibition.
The compounds set forth in Table 1 were tested for activity in a cellular model as described herein. […] Measurements were made and IC50 values, presented in Table 2, below, were determined by fitting the data to a four parameter logistic equation using GraphPad Prism software (GraphPad Software, Inc). The equation may be expressed by the following formula:
Y=Bottom+(Top-Bottom)/(1+10̂((Log EC50−X)*HillSlope))
Where X is the logarithm of concentration, Y is the response and Y starts at Bottom and goes to Top with a sigmoid shape.

CCOC(=O)N1CCC(n2ccc3c(NC(=O)Cc4c(C)cc(C)cc4C)cccc3c2=O)CC1 [ID 754]
inhibition at 0.1 µM: 0 to 25%

COc1ccc(CCC(=O)Nc2cccc3c(=O)n(-c4cc(C)on4)ccc23)cc1 [ID 725]
inhibition at 0.1 µM: 0 to 25%

CCOC(=O)N1CCC(n2ccc3c(NC(=O)c4cc(C)ccc4C)cccc3c2=O)CC1 [ID 767]
inhibition at 0.1 µM: 0 to 25%

CCOC(=O)N1CCC(n2ccc3c(NC(=O)Cc4ccc(OC)c(C)c4)cccc3c2=O)CC1 [ID 806]
inhibition at 0.1 µM: 0 to 25%

O=C(Cc1ccc(Cl)c(Cl)c1)Nc1cccc2c(=O)n(C3CC3)ccc12 [ID 876]
inhibition at 0.3 µM: > 76%
IC50: 15 nM

Cc1ncccc1-n1ccc2c(NC(=O)Cc3cccc(C(F)(F)F)c3F)cccc2c1=O [ID 854]
inhibition at 0.3 µM: > 76%
IC50: 27.1 nM

CCOC(=O)N1CCC(n2ccc3c(NC(=O)CCc4ccccc4OC)cccc3c2=O)CC1 [ID 775]
inhibition at 0.1 µM: 0 to 25%

Cc1cc(-n2ccc3c(NC(=O)c4ccc(F)c(C)c4)cccc3c2=O)no1 [ID 740]
inhibition at 0.1 µM: 0 to 25%

O=C(Cc1ccc(Cl)cc1F)Nc1cccc2c(=O)n(C3CCC3)ccc12 [ID 888]
inhibition at 0.3 µM: > 76%
IC50: 14.4 nM

Cc1cc(-n2ccc3c(NC(=O)c4cccc(C)c4C)cccc3c2=O)no1 [ID 721]
inhibition at 0.1 µM: 0 to 25%

Cc1ccncc1-n1ccc2c(NC(=O)Cc3cccc(C(F)(F)F)c3F)cccc2c1=O [ID 852]
inhibition at 0.3 µM: > 76%
IC50: 43.1 nM

Cc1ncccc1-n1ccc2c(NC(=O)Cc3cc(F)c(F)c(F)c3)cccc2c1=O [ID 866]
inhibition at 0.3 µM: 51 to 75%
IC50: 98.5 nM

COc1ccc(CC(=O)Nc2cccc3c(=O)n(-c4cc(C)on4)ccc23)cc1C [ID 741]
inhibition at 0.1 µM: 0 to 25%

Cc1ccc2c(=O)n([C@H]3CCNC3)ccc2c1NC(=O)Cc1ccc(C(F)(F)F)c(F)c1 [ID 900]
inhibition at 0.3 µM: > 76%
IC50: 40.2 nM

CCOC(=O)N1CCC(n2ccc3c(NC(=O)c4cccc(C)c4C)cccc3c2=O)CC1 [ID 765]
inhibition at 0.1 µM: 0 to 25%

CCOC(=O)N1CCC(n2ccc3c(NC(=O)C(C)c4ccccc4)cccc3c2=O)CC1 (stereo not drawn) [ID 774]
inhibition at 0.1 µM: 0 to 25%

CCOC(=O)N1CCC(n2ccc3c(NC(=O)c4ccccc4Cl)cccc3c2=O)CC1 [ID 761]
inhibition at 0.1 µM: 0 to 25%

CC(C(=O)Nc1cccc2c(=O)n(-c3cccnc3F)ccc12)c1cccc(C(F)(F)F)c1F (stereo not drawn) [ID 875]
inhibition at 0.3 µM: > 76%
IC50: 8.32 nM

CCOC(=O)N1CCC(n2ccc3c(NC(=O)c4cccc(C)c4Cl)cccc3c2=O)CC1 [ID 808]
inhibition at 0.1 µM: 0 to 25%

Cc1ccc(C)c(CC(=O)Nc2cccc3c(=O)n(-c4cc(C)on4)ccc23)c1 [ID 716]
inhibition at 0.1 µM: 0 to 25%

O=C(CC1CCCCCC1)Nc1cccc2c(=O)n(C3CCNCC3)ccc12 [ID 819]
inhibition at 0.3 µM: 51 to 75%
IC50: 206 nM

Cc1cccc(CCC(=O)Nc2cccc3c(=O)n(-c4cc(C)on4)ccc23)c1 [ID 742]
inhibition at 0.1 µM: 0 to 25%

Cc1ncccc1-n1ccc2c(NC(=O)[C@H](C)c3ccc(Cl)cc3)cccc2c1=O [ID 863]
inhibition at 0.3 µM: > 76%
IC50: 43 nM

CCOC(=O)N1CCC(n2ccc3c(NC(=O)[C@@]45C[C@@H]6C[C@@H](C[C@@H]4C6)C5)cccc3c2=O)CC1 [ID 797]
inhibition at 0.1 µM: 0 to 25%

CCOC(=O)N1CCC(n2ccc3c(NC(=O)Cc4cc(C)cc(C)c4)cccc3c2=O)CC1 [ID 802]
inhibition at 0.1 µM: 0 to 25%

CCOC(=O)N1CCC(n2ccc3c(NC(=O)c4cc(Cl)ccc4Cl)cccc3c2=O)CC1 [ID 763]
inhibition at 0.1 µM: 0 to 25%

CCOC(=O)N1CCC(n2ccc3c(NC(=O)c4ccc(Cl)cc4C)cccc3c2=O)CC1 [ID 794]
inhibition at 0.1 µM: 0 to 25%

CCOC(=O)N1CCC(n2ccc3c(NC(=O)c4ccc(-c5ccccc5)cc4)cccc3c2=O)CC1 [ID 772]
inhibition at 0.1 µM: 0 to 25%

CCOC(=O)N1CCC(n2ccc3c(NC(=O)c4ccc(OC)cc4C)cccc3c2=O)CC1 [ID 749]
inhibition at 0.1 µM: 0 to 25%

Cc1ncccc1-n1ccc2c(NC(=O)Cc3ccc(Cl)cc3F)cccc2c1=O [ID 859]
inhibition at 0.3 µM: > 76%
IC50: 50.1 nM

O=C(CC1CCCCCC1)Nc1cccc2c(=O)n(C3CCNC3)ccc12 (stereo not drawn) [ID 820]
inhibition at 0.3 µM: > 76%
IC50: 25.7 nM

COc1ncccc1-n1ccc2c(NC(=O)CC34CC5CC(CC(C5)C3)C4)cccc2c1=O [ID 710]
inhibition at 0.3 µM: > 76%
IC50: 0.246 nM

CCOC(=O)N1CCC(n2ccc3c(NC(=O)CCc4ccc(C)cc4C)cccc3c2=O)CC1 [ID 810]
inhibition at 0.1 µM: 0 to 25%

O=C(Cc1ccc(F)c(Cl)c1)Nc1cccc2c(=O)n(C3CCC3)ccc12 [ID 893]
inhibition at 0.3 µM: > 76%
IC50: 48.3 nM

CC(C(=O)Nc1cccc2c(=O)n(C3CCNC3)ccc12)c1ccc(Cl)c(Cl)c1 (stereo not drawn) [ID 831]
inhibition at 0.3 µM: 51 to 75%
IC50: 154 nM

COc1ccc(-n2ccc3c(NC(=O)CC45CC6CC(CC(C6)C4)C5)cccc3c2=O)cn1 [ID 705]
inhibition at 0.3 µM: > 76%
IC50: 2.4 nM

CCOC(=O)N1CCC(n2ccc3c(NC(=O)Cc4ccccc4Cl)cccc3c2=O)CC1 [ID 778]
inhibition at 0.1 µM: 0 to 25%

Cc1cccc(C(=O)Nc2cccc3c(=O)n(-c4cc(C)on4)ccc23)c1 [ID 723]
inhibition at 0.1 µM: 0 to 25%

Cc1ccc(Oc2ncccc2-n2ccc3c(NC(=O)CC45CC6CC(CC(C6)C4)C5)cccc3c2=O)c2c1CCC2 [ID 708]
inhibition at 0.3 µM: > 76%
IC50: 26.2 nM

Cc1ccc(-n2ccc3c(NC(=O)CC45CC6CC(CC(C6)C4)C5)cccc3c2=O)c(C)n1 [ID 703]
inhibition at 0.3 µM: > 76%
IC50: 13.2 nM

CCOC(=O)N1CCC(n2ccc3c(NC(=O)c4ccc(Cl)c(C)c4)cccc3c2=O)CC1 [ID 760]
inhibition at 0.1 µM: 0 to 25%

O=C(CC12CC3CC(CC(C3)C1)C2)Nc1cccc2c(=O)n(-c3ccc(Oc4ccc(Br)cc4)nc3)ccc12 [ID 704]
inhibition at 0.3 µM: > 76%
IC50: 0.322 nM

CCOC(=O)N1CCC(n2ccc3c(NC(=O)c4cc(Cl)cc(Cl)c4)cccc3c2=O)CC1 [ID 768]
inhibition at 0.1 µM: 0 to 25%

CCOC(=O)N1CCC(n2ccc3c(NC(=O)Cc4cccc(C)c4)cccc3c2=O)CC1 [ID 784]
inhibition at 0.1 µM: 0 to 25%

CCOC(=O)N1CCC(n2ccc3c(NC(=O)[C@H]4CC[C@H](C)CC4)cccc3c2=O)CC1 [ID 750]
inhibition at 0.1 µM: 0 to 25%

O=C(Cc1ccc(Cl)c(Cl)c1)Nc1cccc2c(=O)n(C3CCNCC3)ccc12 [ID 816]
inhibition at 0.3 µM: 26 to 50%
IC50: 305 nM

O=C(Cc1ccc(Cl)c(F)c1)Nc1cccc2c(=O)n(C3CCC3)ccc12 [ID 897]
inhibition at 0.3 µM: > 76%
IC50: 24.5 nM

COc1ccccc1CC(=O)Nc1cccc2c(=O)n(-c3cc(C)on3)ccc12 [ID 727]
inhibition at 0.1 µM: 0 to 25%

O=C(Cc1cccc(C(F)(F)F)c1F)Nc1cccc2c(=O)n(C3CCC3)ccc12 [ID 886]
inhibition at 0.3 µM: > 76%
IC50: 20.3 nM

Cc1ccc(CCC(=O)Nc2cccc3c(=O)n(-c4cc(C)on4)ccc23)c(C)c1 [ID 745]
inhibition at 0.1 µM: 0 to 25%

CCOC(=O)N1CCC(n2ccc3c(NC(=O)Cc4ccccc4F)cccc3c2=O)CC1 [ID 777]
inhibition at 0.1 µM: 0 to 25%

Cc1cc(-n2ccc3c(NC(=O)c4cc5ccccc5o4)cccc3c2=O)no1 [ID 734]
inhibition at 0.1 µM: 0 to 25%

CCOC(=O)N1CCC(n2ccc3c(NC(=O)CC4C[C@@H]5CC[C@H]4C5)cccc3c2=O)CC1 (stereo partly drawn) [ID 795]
inhibition at 0.1 µM: 0 to 25%

COc1ccc(OC)c(CC(=O)Nc2cccc3c(=O)n(-c4cc(C)on4)ccc23)c1 [ID 728]
inhibition at 0.1 µM: 0 to 25%

Cc1cccc(CC(=O)Nc2cccc3c(=O)n(-c4cc(C)on4)ccc23)c1 [ID 731]
inhibition at 0.1 µM: 0 to 25%

O=C(CC12CC3CC(CC(C3)C1)C2)Nc1cccc2c(=O)n(-c3ccc(Oc4c(Cl)cccc4Cl)nc3)ccc12 [ID 713]
inhibition at 0.3 µM: > 76%
IC50: 10.7 nM

Cc1ncccc1-n1ccc2c(NC(=O)Cc3ccc(C(F)(F)F)cc3F)cccc2c1=O [ID 865]
inhibition at 0.3 µM: > 76%
IC50: 76.7 nM

CCOC(=O)N1CCC(n2ccc3c(NC(=O)CCc4ccc5c(c4)OCO5)cccc3c2=O)CC1 [ID 759]
inhibition at 0.1 µM: 0 to 25%

Cc1ncccc1-n1ccc2c(NC(=O)Cc3ccc(F)c(Cl)c3)cccc2c1=O [ID 857]
inhibition at 0.3 µM: > 76%
IC50: 75.7 nM

O=C(Cc1ccc(Cl)c(C(F)(F)F)c1)Nc1cccc2c(=O)n(C3CCC3)ccc12 [ID 899]
inhibition at 0.3 µM: > 76%
IC50: 6.19 nM

CCOC(=O)N1CCC(n2ccc3c(NC(=O)c4cccc(C)c4)cccc3c2=O)CC1 [ID 770]
inhibition at 0.1 µM: 0 to 25%

COc1cccc(CC(=O)Nc2cccc3c(=O)n(-c4cc(C)on4)ccc23)c1 [ID 730]
inhibition at 0.1 µM: 0 to 25%
